This passage reports inhibition results from patent US9828379B2 (priority 2013, dated 2017).

For orientation: inhibition means the share of the control response that was lost under treatment.

Common to all, as to experiment: In vitro competitive activity-based protein profiling (Table 2, % inhibition at 1 μM)
Assay type in all cases: biochemical

The target in one assay is T1, MAGL (Mus musculus, UniProt O35678).
T1 sequence (O35678 1-303): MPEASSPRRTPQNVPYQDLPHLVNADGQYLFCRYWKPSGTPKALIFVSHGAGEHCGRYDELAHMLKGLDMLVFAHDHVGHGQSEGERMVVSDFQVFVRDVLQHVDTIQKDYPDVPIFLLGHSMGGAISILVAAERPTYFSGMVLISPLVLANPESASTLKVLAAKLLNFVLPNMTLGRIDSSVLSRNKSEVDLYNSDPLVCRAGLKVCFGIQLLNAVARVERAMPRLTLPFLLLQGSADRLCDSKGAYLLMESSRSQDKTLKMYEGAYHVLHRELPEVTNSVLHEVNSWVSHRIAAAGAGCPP
The following applies: read-out: % Inhibition at 1 μM MAGL. Here is the method: After 30 min, FP—Rh (1.0 μL, 50 μM in DMSO) was added and the mixture was incubated for another 30 min at 37° C. Reactions were quenched with SDS loading buffer (50 μL-4×) and run on SDS-PAGE.
Cell lysates were diluted with mock proteomes for use in competitive ABPP experiments.

A further assay addresses T2, ABHD6 (Mus musculus, UniProt Q8R2Y0).
T2 sequence (Q8R2Y0 1-336): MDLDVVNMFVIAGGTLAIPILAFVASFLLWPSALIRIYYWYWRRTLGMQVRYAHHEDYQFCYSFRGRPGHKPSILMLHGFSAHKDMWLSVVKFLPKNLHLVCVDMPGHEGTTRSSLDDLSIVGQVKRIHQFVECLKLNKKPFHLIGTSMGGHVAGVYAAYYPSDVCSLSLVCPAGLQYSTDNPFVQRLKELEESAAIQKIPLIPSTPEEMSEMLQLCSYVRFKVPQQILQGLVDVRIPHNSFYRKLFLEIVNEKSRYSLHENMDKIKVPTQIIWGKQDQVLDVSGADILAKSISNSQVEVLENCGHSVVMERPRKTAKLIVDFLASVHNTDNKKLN
As to conditions: read-out: % Inhibition at 1 μM ABHD6. The protocol: (§1) After 30 min, FP—Rh (1.0 μL, 50 μM in DMSO) was added and the mixture was incubated for another 30 min at 37° C. Reactions were quenched with SDS loading buffer (50 μL-4×) and run on SDS-PAGE. Following gel imaging, serine hydrolase activity was determined by measuring fluorescent intensity of gel bands corresponding to MAGL, ABHD6 and FAAH using ImageJ 1.43 u software.
(§2) hMAGL was expressed in HEK293T cells according to previously reported methods (see Niphakis, Long, and Blankman, J. L., et al. (2007) Chem. Biol. 14:1347-1356). Cell lysates were diluted with mock proteomes for use in competitive ABPP experiments.

The next assay concerns the target T3, FAAH (Mus musculus, UniProt O08914).
T3 sequence (O08914 1-579): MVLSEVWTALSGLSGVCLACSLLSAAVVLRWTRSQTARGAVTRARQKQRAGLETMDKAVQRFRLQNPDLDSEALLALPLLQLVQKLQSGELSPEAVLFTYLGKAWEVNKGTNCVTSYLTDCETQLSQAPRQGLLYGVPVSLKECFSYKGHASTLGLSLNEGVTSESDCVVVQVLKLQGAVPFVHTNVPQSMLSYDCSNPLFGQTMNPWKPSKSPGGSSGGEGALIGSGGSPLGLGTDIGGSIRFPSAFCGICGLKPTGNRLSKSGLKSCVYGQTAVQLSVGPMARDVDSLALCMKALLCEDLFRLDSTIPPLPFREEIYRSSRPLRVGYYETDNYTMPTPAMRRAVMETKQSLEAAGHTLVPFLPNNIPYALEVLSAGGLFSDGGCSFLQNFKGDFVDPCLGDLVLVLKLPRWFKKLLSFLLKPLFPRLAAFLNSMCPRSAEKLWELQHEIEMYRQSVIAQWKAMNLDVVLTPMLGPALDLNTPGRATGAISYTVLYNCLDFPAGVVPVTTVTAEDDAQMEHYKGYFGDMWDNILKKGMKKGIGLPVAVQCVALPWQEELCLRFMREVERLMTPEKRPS
The following applies: read-out: % Inhibition at 1 μM FAAH. Here is the method:
as §1, §2

For the molecule `Cn1cc(CN2CC3CN(C(=O)OC(C(F)(F)F)C(F)(F)F)CC3C2)c(C2CCN(S(C)(=O)=O)CC2)n1` (stereo not drawn) [Example 56, 1,1,1,3,3,3-Hexafluoropropan-2-yl 5-[[3-(1-methanesulfonylpiperidin-4-yl)-1-methyl-1H-pyrazol-4-yl]methyl]-octahydropyrrolo[3,4-c]pyrrole-2-carboxylate], the inhibition at 1 µM was above 75% on MAGL, below 25% on ABHD6 and below 25% on FAAH.

As to `Cn1nc(-c2cccc(F)c2)cc1CN1CC2CN(C(=O)ON3C(=O)CCC3=O)CC2C1` (stereo not drawn) [Example 198, 2,5-dioxopyrrolidin-1-yl 5-((3-(3-fluorophenyl)-1-methyl-1H-pyrazol-5-yl)methyl)hexahydropyrrolo[3,4-c]pyrrole-2(1H)-carboxylate], the inhibition at 1 µM on MAGL, at ABHD6 and on FAAH was below 25% throughout.

Consider `O=C(OC(C(F)(F)F)C(F)(F)F)N1CC2CN(Cc3ccc(Cl)cc3N3CCOCC3)CC2C1` (stereo not drawn) [Example 18, 1,1,1,3,3,3-Hexafluoropropan-2-yl 5-[[4-chloro-2-(morpholin-4-yl)phenyl]methyl]-octahydropyrrolo[3,4-c]pyrrole-2-carboxylate], for which the inhibition at 1 µM on MAGL is above 75%; on ABHD6 it was 25 to 75%; at FAAH it was 25 to 75%.

As to `CCn1cc(CN2CC3CN(C(=O)OC(C(F)(F)F)C(F)(F)F)CC3C2)c(-c2ccccn2)n1` (stereo not drawn) [Example 70, 1,1,1,3,3,3-Hexafluoropropan-2-yl 5-[[1-ethyl-3-(pyridin-2-yl)-1H-pyrazol-4-yl]methyl]-octahydropyrrolo[3,4-c]pyrrole-2-carboxylate], the values for the inhibition at 1 µM at MAGL, on ABHD6 and on FAAH were 25 to 75%, below 25% and below 25%, respectively.

Regarding `CCN1CCN(c2cccc(CN3CC4CN(C(=O)ON5C(=O)CCC5=O)CC4C3)c2C)CC1` (stereo not drawn) [Example 146], the figures for the inhibition at 1 µM on MAGL, on ABHD6 and on FAAH were 25 to 75%, below 25% and below 25%, respectively.

For `CC(C)c1cc(CN2CC3CN(C(=O)ON4C(=O)CCC4=O)CC3C2)n(C2CCCCC2)n1` (stereo not drawn) [Example 123, 2,5-Dioxopyrrolidin-1-yl 5-[[1-cyclohexyl-3-(propan-2-yl)-1H-pyrazol-5-yl]methyl]-octahydropyrrolo[3,4-c]pyrrole-2-carboxylate], the inhibition at 1 µM at MAGL was 25 to 75%; on ABHD6, above 75%; at FAAH, below 25%.

Regarding `CC(=O)N1CCN(c2ccc(CN3CC4CN(C(=O)ON5C(=O)CCC5=O)CC4C3)c(Cl)c2)CC1` (stereo not drawn) [Example 103, 2,5-Dioxopyrrolidin-1-yl 5-[[4-(4-acetylpiperazin-1-yl)-2-chlorophenyl]methyl]-octahydropyrrolo[3,4-c]pyrrole-2-carboxylate], the inhibition at 1 µM on MAGL, on ABHD6 and on FAAH was below 25% each time.

In the case of `O=C(OC(C(F)(F)F)C(F)(F)F)N1CC2CN(Cc3ccc(C(=O)N4CCOCC4)c(OC(F)(F)F)c3)CC2C1` (stereo not drawn) [Example 191, 1,1,1,3,3,3-hexafluoropropan-2-yl 5-(4-(morpholine-4-carbonyl)-3-(trifluoromethoxy)benzyl)hexahydropyrrolo[3,4-c]pyrrole-2(1H)-carboxylate], the inhibition at 1 µM at MAGL, at ABHD6 and on FAAH was below 25% in each case.

With `Cc1cccc(-c2cc(CN3CC4CN(C(=O)ON5C(=O)CCC5=O)CC4C3)n(C)n2)c1` (stereo not drawn) [Example 199, 2,5-dioxopyrrolidin-1-yl 5-((1-methyl-3-(m-tolyl)-1H-pyrazol-5-yl)methyl)hexahydropyrrolo[3,4-c]pyrrole-2(1H)-carboxylate], the inhibition at 1 µM was 25 to 75% on MAGL, below 25% at ABHD6 and below 25% at FAAH.

As for `CC(=O)NC1CCN(c2cccc(CN3CC4CN(C(=O)ON5C(=O)CCC5=O)CC4C3)c2C)CC1` (stereo not drawn) [Example 142, 2,5-dioxopyrrolidin-1-yl 5-[[3-(4-acetamidopiperidin-1-yl)-2-methylphenyl]methyl]-octahydropyrrolo[3,4-c]pyrrole-2-carboxylate], the inhibition at 1 µM at MAGL, at ABHD6 and at FAAH was below 25% each time.

As to `CC(=O)N1CCN(c2ccc(CN3CC4CN(C(=O)ON5C(=O)CCC5=O)CC4C3)c(F)c2)CC1` (stereo not drawn) [Example 101, 2,5-Dioxopyrrolidin-1-yl 5-[[4-(4-acetylpiperazin-1-yl)-2-fluorophenyl]methyl]-octahydropyrrolo[3,4-c]pyrrole-2-carboxylate], the inhibition at 1 µM at MAGL, at ABHD6 and on FAAH was below 25% in each case.

Consider `O=C(ON1C(=O)CCC1=O)N1CC2CN(Cc3ccc(C(=O)N4CCC4)cc3Cl)CC2C1` (stereo not drawn) [Example 165, 2,5-dioxopyrrolidin-1-yl5-(4-(azetidine-1-carbonyl)-2-chlorobenzyl)-hexahydropyrrolo[3,4-c]pyrrole-2(1H)-carboxylate], for which the inhibition at 1 µM was 25 to 75% on MAGL, below 25% on ABHD6 and below 25% on FAAH.

For `CS(=O)(=O)N1CCN(c2cc(Cl)ccc2CN2CC3CN(C(=O)ON4C(=O)CCC4=O)CC3C2)CC1` (stereo not drawn) [Example 110, 2,5-Dioxopyrrolidin-1-yl 5-[[4-chloro-2-(4-methanesulfonylpiperazin-1-yl)phenyl]methyl]-octahydropyrrolo[3,4-c]pyrrole-2-carboxylate], the inhibition at 1 µM at MAGL, on ABHD6 and on FAAH was below 25% each time.

Take `CC(C)c1ccc(CN2CC3CN(C(=O)ON4C(=O)CCC4=O)CC3C2)c(N2CCOCC2)c1` (stereo not drawn) [Example 97, 2,5-Dioxopyrrolidin-1-yl 5-[[2-(morpholin-4-yl)-4-(propan-2-yl)phenyl]methyl]-octahydropyrrolo[3,4-c]pyrrole-2-carboxylate]: the inhibition at 1 µM on MAGL, on ABHD6 and on FAAH was below 25% throughout.

On to `Cc1cccc(CN2CC3CN(C(=O)ON4C(=O)CCC4=O)CC3C2)c1N1CCCCC1` (stereo not drawn) [Example 105, 2,5-Dioxopyrrolidin-1-yl 5-[[3-methyl-2-(piperidin-1-yl)phenyl]methyl]-octahydropyrrolo[3,4-c]pyrrole-2-carboxylate], for which the values for the inhibition at 1 µM on MAGL, at ABHD6 and at FAAH were 25 to 75%, below 25% and below 25%, respectively.

Turning to `O=C(ON1C(=O)CCC1=O)N1CC2CN(Cc3ccc(Cl)cc3N3CCN4CCC[C@@H]4C3)CC2C1` (stereo partly drawn) [Example 109, 2,5-Dioxopyrrolidin-1-yl 5-(4-chloro-2-((R)-hexahydropyrrolo[1,2-a]pyrazin-2(1H)-yl)benzyl)-hexahydropyrrolo[3,4-c]pyrrole-2(1H)-carboxylate], the inhibition at 1 µM on MAGL, at ABHD6 and on FAAH was below 25% throughout.

On to `O=C(ON1C(=O)CCC1=O)N1CC2CN(Cc3ccc(Cl)cc3N3CCn4ncnc4C3)CC2C1` (stereo not drawn) [Example 108, 2,5-Dioxopyrrolidin-1-yl 5-(4-chloro-2-(5,6-dihydro-[1,2,4]triazolo[1,5-a]pyrazin-7(8H)-yl)benzyl)-hexahydropyrrolo[3,4-c]pyrrole-2(1H)-carboxylate], for which the inhibition at 1 µM at MAGL, at ABHD6 and on FAAH was below 25% throughout.
